Consider 9 compounds from ChEMBL document CHEMBL1201862, “PubChem BioAssay data set” (2004).

Test systems include MDA-MB-231; A498; K562; SNB-75; MDA-MB-435; OVCAR-3; HT-29; HCT-15; SF-539; COLO 205; HOP-92; CAKI-1; OVCAR-4; OVCAR-8; UACC-257; MCF7; SF-268; RPMI-8226; HL-60.
Holding throughout (experiment): inhibition of tumour cell growth, NCI panel, 48 h

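48-hour exposure; five concentrations; linearly interpolated endpoints. Abbreviation: GI50, concentration required for 50% inhibition of growth.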 Activity calls are given as the source filed them. Cut-off read from the data, not from the text of the source: active = GI50 up to about 1.1 µM and inactive = higher.

For `COc1cc2c(cc1OC)C1Cc3ccccc3CN1CCC2` (configuration not stated), the GI50 with MDA-MB-231 was > 100 µM (inactive); in the assay with A498, 97.7 µM (inactive); in the assay with K562, 50 µM (inactive); in the assay on SNB-75, 37.6 µM (inactive); in the assay with MDA-MB-435 it was 47.6 µM (inactive); in the assay on OVCAR-3, > 100 µM (inactive). Further, the GI50 with HT-29 is 66.8 µM (inactive); with HCT-15, greater than 100 µM; in the assay with SF-539 it was > 100 µM (inactive); with COLO 205 it was > 100 µM (inactive); in the assay on HOP-92 it was 92.9 µM (inactive); in the assay on CAKI-1 it was > 100 µM (inactive). The GI50 was 88.3 µM (inactive) in the assay with OVCAR-4; > 100 µM (inactive) in the assay on OVCAR-8; > 100 µM (inactive) in the assay on UACC-257; > 100 µM (inactive) in the assay with MCF7; > 100 µM (inactive) in the assay on SF-268.

As for `O=C1/C(=C/c2ccc(OC(=O)c3ccc(Cl)cc3)cc2)CCC/C1=C\c1ccc(OC(=O)c2ccc(Cl)cc2)cc1`, the GI50 with MDA-MB-231 was 46.5 µM (inactive); in the assay with SNB-75, 21 µM (inactive); in the assay with MDA-MB-435 it was > 100 µM (inactive); in the assay on RPMI-8226 it was > 100 µM (inactive); in the assay with OVCAR-3, > 100 µM (inactive); with HT-29, > 100 µM (inactive). Also, the GI50 is greater than 100 µM in the assay with HCT-15; > 100 µM (inactive) in the assay on HL-60; 30 µM (inactive) in the assay with SF-539; > 100 µM (inactive) in the assay with COLO 205; > 100 µM (inactive) in the assay with HOP-92; > 100 µM (inactive) in the assay with CAKI-1. In addition, the GI50 with OVCAR-4, in the assay on OVCAR-8, with UACC-257, in the assay with MCF7 and in the assay on SF-268 was > 100 µM (inactive) throughout.

For `O=C(c1ccccc1)C1C(c2ccccc2[N+](=O)[O-])N1C1CCCCC1` (configuration not stated), the GI50 in the assay on MDA-MB-231 is 7.69 µM (inactive); with A498, 16.7 µM (inactive); in the assay with K562, 2.79 µM (inactive); in the assay with MDA-MB-435, 2.6 µM (inactive); with RPMI-8226 it was 1.72 µM (inactive); in the assay on OVCAR-3 it was 2.5 µM (inactive). The GI50 was 4.1 µM (inactive) with HT-29; 3.52 µM with HCT-15; 2.1 µM (inactive) with SF-539; 7.26 µM (inactive) in the assay with COLO 205; 3.5 µM (inactive) in the assay with HOP-92; 3.44 µM (inactive) in the assay on CAKI-1. The GI50 was 9.33 µM (inactive) in the assay with OVCAR-4; 1.86 µM (inactive) in the assay on OVCAR-8; 3.21 µM (inactive) in the assay with UACC-257; 3.65 µM (inactive) with MCF7; 9.2 µM (inactive) with SF-268.

In the case of `CC1=CC(=O)/C(=C/NC(=S)C(N)=S)C(=O)O1`, the GI50 with MDA-MB-231 was > 100 µM (inactive); in the assay on K562, > 100 µM (inactive); with SNB-75 it was 19 µM (inactive); in the assay with MDA-MB-435, > 100 µM (inactive); in the assay on RPMI-8226, > 100 µM (inactive); in the assay with OVCAR-3 it was > 100 µM (inactive). The GI50 was > 100 µM (inactive) in the assay with HT-29; greater than 100 µM with HCT-15; 47.5 µM (inactive) in the assay with HL-60; > 100 µM (inactive) with SF-539; > 100 µM (inactive) in the assay with COLO 205; > 100 µM (inactive) with HOP-92. The GI50 in the assay on CAKI-1, in the assay with OVCAR-4, with OVCAR-8, with UACC-257, in the assay with MCF7 and with SF-268 was > 100 µM (inactive) throughout.

Regarding `c1cc2ccc3cc4ncccc4c4ccc(c1)c2c34`, the GI50 in the assay on MDA-MB-231 was 20.8 µM (inactive); in the assay with K562 it was 59.4 µM (inactive); in the assay on SNB-75, 19.8 µM (inactive); in the assay with MDA-MB-435, 40.4 µM (inactive); in the assay on RPMI-8226, 10.1 µM (inactive); in the assay with OVCAR-3 it was 82.2 µM (inactive). Also, the GI50 was 23.2 µM (inactive) with HT-29; 7.73 µM with HCT-15; 33.2 µM (inactive) in the assay on HL-60; 20.9 µM (inactive) in the assay with SF-539; 9.82 µM (inactive) in the assay on COLO 205; 17.4 µM (inactive) in the assay with HOP-92. The GI50 was 18.5 µM (inactive) in the assay with CAKI-1; 6.82 µM (inactive) with OVCAR-8; 56.8 µM (inactive) in the assay on UACC-257; 0.338 µM (active) in the assay on MCF7; 30.7 µM (inactive) in the assay on SF-268.

As for `Cc1ccc(SCC(OCn2cnc3c(N)ncnc32)[C@H](C)F)cc1` (some centres not stated), the GI50 with MDA-MB-231, in the assay with SNB-75, in the assay with MDA-MB-435, with RPMI-8226, in the assay on OVCAR-3 and in the assay on HT-29 was > 100 µM (inactive) each time. Besides, the GI50 in the assay with HCT-15 was greater than 100 µM; in the assay on HL-60, > 100 µM (inactive); in the assay on SF-539, > 100 µM (inactive); in the assay on COLO 205, > 100 µM (inactive); in the assay on HOP-92 it was 54.5 µM (inactive); with CAKI-1, > 100 µM (inactive). The GI50 in the assay on OVCAR-4, with OVCAR-8, with UACC-257, with MCF7 and with SF-268 was > 100 µM (inactive) in each case.

Consider `O=c1n(CCO)nc2n1CCCN2`, for which the GI50 in the assay with MDA-MB-231, in the assay on K562, in the assay with SNB-75, in the assay with MDA-MB-435, in the assay on RPMI-8226 and in the assay on OVCAR-3 was > 100 µM (inactive) each time. Besides, the GI50 in the assay with HT-29 is > 100 µM (inactive); with HCT-15, greater than 100 µM; in the assay on HL-60, > 100 µM (inactive); in the assay with SF-539, > 100 µM (inactive); in the assay with COLO 205 it was > 100 µM (inactive); with HOP-92, > 100 µM (inactive). The GI50 in the assay on OVCAR-4, in the assay with OVCAR-8, in the assay on MCF7 and in the assay on SF-268 was > 100 µM (inactive) in each case.

`Cc1ccc(S(=O)(=O)N2C3C=CC(C3)[C@@H]2C(Cl)(Cl)Cl)cc1` (some centres not stated): the GI50 is 12.5 µM (inactive) with MDA-MB-231; 18.2 µM (inactive) with SNB-75; 27 µM (inactive) in the assay with MDA-MB-435; 3.09 µM (inactive) with RPMI-8226; 6.64 µM (inactive) in the assay with OVCAR-3; 11.8 µM (inactive) in the assay with HT-29. The GI50 was 19.1 µM with HCT-15; 1.66 µM (inactive) with HL-60; 12.3 µM (inactive) in the assay on SF-539; 20.6 µM (inactive) with COLO 205; 10.1 µM (inactive) in the assay on HOP-92; 13.3 µM (inactive) with CAKI-1. Further, the GI50 in the assay on OVCAR-4 was 15.2 µM (inactive); in the assay on OVCAR-8, 15.7 µM (inactive); in the assay with UACC-257, 20.1 µM (inactive); with MCF7, 26.7 µM (inactive); in the assay with SF-268, 13.2 µM (inactive).

`COC(=O)c1cc(/C=C\c2cc(OC)ccc2OC)ccc1OC`: the GI50 with MDA-MB-231 is 34.4 µM (inactive); in the assay on A498 it was 28.7 µM (inactive); with K562, 6.5 µM (inactive); in the assay on MDA-MB-435 it was 8.81 µM (inactive); in the assay on RPMI-8226, 18.4 µM (inactive); in the assay on OVCAR-3, 24.4 µM (inactive). The GI50 in the assay with HT-29 is 25.6 µM (inactive); with HCT-15 it was 33.2 µM; in the assay with SF-539 it was 38.5 µM (inactive); in the assay with COLO 205, 21.2 µM (inactive); in the assay with CAKI-1, 33.3 µM (inactive); in the assay with OVCAR-4, 33.6 µM (inactive). The GI50 is 36.4 µM (inactive) with OVCAR-8, 30.5 µM (inactive) with UACC-257, 25.6 µM (inactive) with MCF7 and 32.7 µM (inactive) with SF-268.
